Experimental data published in patent US10392404B2, “Compounds and compositions as kinase inhibitors” (NOVARTIS AG, priority 2014, dated 2019).

What was measured:
C-RAF = target: T1, C-RAF (Homo sapiens, UniProt P04049, Y340E/Y341E); assay: In vitro Raf activity determination (Alpha Screen, biotinylated kinase-dead MEK1 substrate), C-Raf; format: biochemical; conditions: c-Raf approximately 4 nM; ATP 1 μM; pre-incubation 60 minutes; reaction 1 hour at room temperature
T1 construct: His tag (implied by nickel chromatography) (cleaved yes); StrepII tag (cleaved yes); made in house; host or cells: Sf9 insect cells (baculovirus), CRAF and h14-3-3 zeta co-expressed; MEK1 substrate from E. coli
T1 sequence (P04049 whole entry Y340E/Y341E): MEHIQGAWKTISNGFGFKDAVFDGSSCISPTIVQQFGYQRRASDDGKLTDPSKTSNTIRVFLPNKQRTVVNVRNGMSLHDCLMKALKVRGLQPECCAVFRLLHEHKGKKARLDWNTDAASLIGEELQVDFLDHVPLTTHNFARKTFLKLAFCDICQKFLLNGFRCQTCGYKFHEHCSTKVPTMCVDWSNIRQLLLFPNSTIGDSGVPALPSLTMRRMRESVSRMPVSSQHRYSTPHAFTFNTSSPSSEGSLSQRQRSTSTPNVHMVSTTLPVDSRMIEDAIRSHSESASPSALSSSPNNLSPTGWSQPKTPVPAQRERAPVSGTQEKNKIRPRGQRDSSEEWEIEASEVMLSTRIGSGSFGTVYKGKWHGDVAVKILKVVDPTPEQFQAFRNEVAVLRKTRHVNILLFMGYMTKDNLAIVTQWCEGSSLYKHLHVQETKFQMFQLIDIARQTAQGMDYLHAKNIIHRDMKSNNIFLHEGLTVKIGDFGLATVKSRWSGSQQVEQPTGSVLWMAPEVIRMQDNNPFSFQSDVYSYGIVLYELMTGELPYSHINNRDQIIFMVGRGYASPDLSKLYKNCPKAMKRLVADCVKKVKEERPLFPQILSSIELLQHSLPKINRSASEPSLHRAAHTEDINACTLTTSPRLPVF
T1 sequence (P63104 whole entry partner): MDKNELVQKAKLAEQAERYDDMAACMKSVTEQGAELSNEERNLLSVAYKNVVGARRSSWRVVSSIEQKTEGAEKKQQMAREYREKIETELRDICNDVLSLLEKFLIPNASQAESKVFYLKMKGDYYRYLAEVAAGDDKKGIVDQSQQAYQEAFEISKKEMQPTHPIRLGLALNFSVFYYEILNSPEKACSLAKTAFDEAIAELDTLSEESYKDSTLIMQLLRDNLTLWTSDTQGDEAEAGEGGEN
Outline: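 Full-length C-Raf carrying Y340E/Y341E, co-expressed with 14-3-3ζ in Sf9 cells, at approximately 4 nM, with approximately 10 nM biotinylated kinase-dead MEK1 (K97R) and 1 μM ATP, pH 7.5. Compound preincubated 60 min, reaction 1 hour at room temperature. Phospho-MEK read by AlphaScreen; IC50 by non-linear regression.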

b-Raf (V600E) = target: T2, b-Raf (V600E) (Homo sapiens, UniProt P15056, V600E); assay: In vitro Raf activity determination (Alpha Screen, biotinylated kinase-dead MEK1 substrate), B-Raf; format: biochemical; conditions: b-Raf (V600E) approximately 4 pM; ATP 10 μM; pre-incubation 60 minutes; reaction 3 hours at room temperature
T2 construct: made in house
T2 sequence (P15056 whole entry V600E): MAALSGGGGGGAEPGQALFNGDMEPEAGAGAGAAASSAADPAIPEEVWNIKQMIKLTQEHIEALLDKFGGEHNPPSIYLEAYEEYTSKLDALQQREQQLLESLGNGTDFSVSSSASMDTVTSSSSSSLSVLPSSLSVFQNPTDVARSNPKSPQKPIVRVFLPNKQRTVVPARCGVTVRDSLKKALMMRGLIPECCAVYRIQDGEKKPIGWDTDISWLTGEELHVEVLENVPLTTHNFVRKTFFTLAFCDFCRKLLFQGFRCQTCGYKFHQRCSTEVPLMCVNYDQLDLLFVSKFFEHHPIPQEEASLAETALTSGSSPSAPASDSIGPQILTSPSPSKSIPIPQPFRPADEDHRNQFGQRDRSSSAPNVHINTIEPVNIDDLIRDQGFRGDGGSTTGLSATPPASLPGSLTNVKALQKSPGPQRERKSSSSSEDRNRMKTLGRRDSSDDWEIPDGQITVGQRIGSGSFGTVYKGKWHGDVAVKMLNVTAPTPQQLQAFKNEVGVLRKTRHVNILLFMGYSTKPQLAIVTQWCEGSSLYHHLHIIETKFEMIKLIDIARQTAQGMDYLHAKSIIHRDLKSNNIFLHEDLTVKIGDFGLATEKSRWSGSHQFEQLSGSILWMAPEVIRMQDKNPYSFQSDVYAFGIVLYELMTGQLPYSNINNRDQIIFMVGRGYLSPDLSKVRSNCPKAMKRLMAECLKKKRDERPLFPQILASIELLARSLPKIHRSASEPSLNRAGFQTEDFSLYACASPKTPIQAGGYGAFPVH
Outline: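 Activated b-Raf(V600E) (~4 pM) pre-incubated 60 min with compound and biotinylated kinase-dead (K97R) MEK1 (~10 nM), then reacted 3 h at room temperature with 10 μM ATP in 50 mM Tris pH 7.5, 15 mM MgCl2, 0.01% BSA, 1 mM DTT. Phospho-MEK detected by AlphaScreen; IC50 by non-linear regression.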

Row | SMILES | IC50 (C-RAF) [nM] | IC50 (b-Raf (V600E)) [nM]
1 | Cc1ncc(NC(=O)c2cc(C3CC3)nn2C)cc1-c1cnc(N(C)C)c(C#N)c1 [Example 266, N-(5′-cyano-6′-(dimethylamino)-2-methyl-[3,3′-bipyridin]-5-yl)-3-cyclopropyl-1-methyl-1H-pyrazole-5-carboxamide] | 30.8 | 404
2 | Cc1ncc(NC(=O)c2cc(C(F)(F)F)nn2C)cc1-c1cnc(N(C)C)c(C#N)c1 [Example 267, N-(5′-cyano-6′-(dimethylamino)-2-methyl-[3,3′-bipyridin]-5-yl)-1-methyl-3-(trifluoromethyl)-1H-pyrazole-5-carboxamide] | 196 | 1660
3 | Cc1cc(CC(=O)Nc2cnc(C)c(-c3cnc(N(C)C)c(C#N)c3)c2)on1 [Example 268, N-(5′-cyano-6′-(dimethylamino)-2-methyl-[3,3′-bipyridin]-5-yl)-2-(3-methylisoxazol-5-yl)acetamide] | 8 | 94.2
4 | Cc1ncc(NC(=O)c2cc(C(C)C)on2)cc1-c1cnc(N(C)C)c(C#N)c1 [Example 269, N-(5′-cyano-6′-(dimethylamino)-2 methyl-[3,3′-bipyridin]-5-yl)-5-isopropylisoxazole-3-carboxamide] | 0.636 | 6.15
5 | Cc1ncc(NC(=O)c2cccc(S(C)(=O)=O)c2)cc1-c1cnc(N(C)C)c(C#N)c1 [Example 270, N-(5′-cyano-6′-(dimethylamino)-2-methyl-[3,3′-bipyridin]-5-yl)-3-(methylsulfonyl) benzamade] | 0.49 | 5.41

Second part, the molecule after the results:

Row | IC50 (C-RAF) [nM] | IC50 (b-Raf (V600E)) [nM] | SMILES
6 | 1.15 | 11.2 | Cc1ncc(NC(=O)c2ccnc(S(C)(=O)=O)c2)cc1-c1cnc(N(C)C)c(C#N)c1 [Example 271, N-(5′-cyano-6′-(dimethylamino)-2-methyl-[3,3′-bipyridin]-5-yl)-2-(methylsulfonyl) isonicotinamide]
7 | 2.16 | 18.4 | Cc1ncc(NC(=O)c2ccnc(C(C)(C)O)c2)cc1-c1cnc(N(C)C)c(C#N)c1 [Example 272, N-(5′-cyano-6′-(dimethylamino)-2-methyl-[3,3′-bipyridin]-5-yl)-2-(2-hydroxypropan-2-yl)isonicotinamide]
8 | 1 | 4 | Cc1ccc(NC(=O)c2cc(C(C)(C)N)cc(C(F)(F)F)c2)cc1-c1cnc(-c2cnn(C)c2)c(C#N)c1 [Example 273, 3-(2-aminopropan-2-yl)-N-(3-(5-cyano-6-(1-methyl-1H-pyrazol-4-yl)pyridin-3-yl)-4-methylphenyl)-5-(trifluoromethyl) benzamide]
